Measured values: PMC8310135 (Viruses, 2021)
Structures can show the parent of a compound that is named as a salt. Where two headings read alike, the source gives them in different places.

Experiments:
rLUJV/ZsG = assay: microbe, parasite or virus in culture; format: cell-based, Lujo virus; conditions: for activity at 0.05 µM / activity at 0.5 µM / activity at 5 µM: Huh-7, read-out: Relative ZsG (%) Mean
wt LUJV = format: cell-based, Lujo virus
Huh7 cells = conditions: for CC50: human
in vitro = conditions: human; for CC50: CC50 (50% cell cytotoxicity concentration)
LASV [1] = conditions: read-out: EC50 reported for LASV; cited from earlier work
JUNV [2] = conditions: read-out: EC50 reported for JUNV; cited from earlier work
LASV [3] = conditions: read-out: EC50 for LASV inhibition; cited from earlier work
LASV [4] = conditions: read-out: EC50 against LASV; cited from earlier work
LUJV = conditions: cited from earlier work
JUNV [5] = conditions: cited from earlier work
[6] = Mammarenavirus lujoense, Huh-7, read-out: EC50 (concentration inhibiting ZsG expression by 50%)
[7] = Mammarenavirus lujoense, 500 nM
[8] = Mammarenavirus lujoense, 5000 nM
[9] = read-out: EC50 (concentration inhibiting ZsG expression by 50%)

Compound | EC50 (rLUJV/ZsG; [6]) [nM] | activity at 0.05 µM (rLUJV/ZsG; Mammarenavirus lujoense, 50 nM) [%] | activity at 0.5 µM (rLUJV/ZsG; [7]) [%] | activity at 5 µM (rLUJV/ZsG; [8]) [%] | EC50 (rLUJV/ZsG; [9]) [nM] | CC50 (Huh7 cells) [nM] | viability at 0.05 µM (in vitro) [%] | viability at 0.5 µM (in vitro) [%] | viability at 5 µM (in vitro) [%] | CC50 (in vitro) [nM] | SI (selectivity index, CC50 divided by EC50) (rLUJV/ZsG) | Relative ZsG (%) Mean (rLUJV/ZsG; 50 nM) [%] | Relative ZsG (%) Mean (rLUJV/ZsG; 500 nM) [%] | Relative ZsG (%) Mean (rLUJV/ZsG; 5000 nM) [%] | Cell Viability (%) Mean (Huh7 cells; 50 nM) [%] | Cell Viability (%) Mean (Huh7 cells; 500 nM) [%] | Cell Viability (%) Mean (Huh7 cells; 5000 nM) [%] | other results
O=C(NCCCNc1nc(Nc2cccc(NC(=O)N3CCCC3)c2)ncc1I)c1cccs1 [BX-795] | 600 ± 270 | 80 | 41 | 9 | 598 ± 274 | 9910 ± 1090 | 128 | 105 | 60 | 9910 ± 1090 |  |  |  |  |  |  |  | reduction of wt LUJV viral titers (wt LUJV): approximately 4 logs; viability (in vitro): > 75%
NCC(=O)Nc1ccc(-n2nc(C(F)(F)F)cc2-c2ccc3c(ccc4ccccc43)c2)cc1 [AR-12] | 1200 | 74 | 54 | 2 | 1220 ± 444 | 5520 ± 1670 | 129 | 115 | 1 | 5500 ± 1700 | 4.5 |  |  |  |  |  |  | 
COC1=CC(c2cc3ccccc3[nH]2)=N/C1=C\c1[nH]c(C)cc1C [Obatoclax] | 360 ± 100 | 36 | 4 | 10 | 355 ± 105 | 1500 ± 332 | 130 | 25 | 2 | 1500 ± 330 | 4.2 |  |  |  |  |  |  | 
CC/C(=C(\c1ccccc1)c1ccc(OCCN(C)C)cc1)c1ccccc1 [Tamoxifene citrate] | 3590 ± 720 | 84 | 78 | 2 | 3590 ± 724 | 7370 ± 1040 | 123 | 123 | 85 | 7370 ± 1040 | 2.1 |  |  |  |  |  |  | 
NC(=O)c1ncn([C@@H]2O[C@H](CO)[C@@H](O)[C@H]2O)n1 [Ribavirin] | 11100 ± 1400 | 94 | 73 | 63 |  |  | 124 | 122 | 133 | > 50000 |  |  |  |  |  |  |  | EC50 (LASV [1]): 2470 nM; EC50 (JUNV [2]): 18300 nM
Cc1cccc(/C=N/Nc2cc(N3CCOCC3)nc(OCCc3ccccn3)n2)c1 [Apilimod] | 1440 ± 600 | 91 | 45 | 24 | 1440 ± 637 |  | 130 | 115 | 80 | 14400 ± 3240 |  |  |  |  |  |  |  | reduction of wt LUJV viral titers (wt LUJV): approximately 4 logs; EC50 (LASV [3]): 50 nM; viability (in vitro): > 75%
C[C@@H](c1nc(-c2ccc(C#N)cc2)cs1)[C@](O)(Cn1cncn1)c1cc(F)ccc1F [Isavucanazole] | 6100 ± 900 | 73 | 75 | 34 | 6110 ± 926 |  | 114 | 121 | 75 | 12700 ± 3970 | 2.1 |  |  |  |  |  |  | EC50 (LASV [4]): 1200 nM; inhibition of LUJV (LUJV): did not inhibit
CC[C@H](CC#N)OC(=O)N[C@@H](C)c1cccc(NC(=O)Nc2ccc(-c3cnco3)c(OC)c2)c1 [AVN-944] | 200 ± 90 | 43 | 4 | 1 | 201 ± 89 |  | 103 | 97 | 64 | > 12500 |  |  |  |  |  |  |  | reduction of wt LUJV viral titers (wt LUJV): approximately 4 logs; reduction of JUNV titers (JUNV [5]): > 90%; viability (in vitro): > 75%
O=C(Nc1ccc([N+](=O)[O-])cc1Cl)c1cc(Cl)ccc1O [Niclosamide] | 90 | 30 | 2 | 2 | 85 ± 29 | 272 ± 34 | 77 | 2 | 1 | 270 | 3.2 |  |  |  |  |  |  | EC50 (LASV [3]): 80 nM
Cc1c(-c2ccc(-c3ccccc3F)cc2)nc2ccc(F)cc2c1C(=O)O [Brequinar] | 110 ± 20 | 27 | 2 | 2 | 109 ± 15 |  | 113 | 85 | 67 | > 12500 |  |  |  |  |  |  |  | reduction of wt LUJV viral titers (wt LUJV): approximately 4 logs; viability (in vitro): > 75%
CCCCCCCCCCCCCCCCn1cc[n+](Cc2ccccc2)c1C.[I-] [NH125] |  |  |  |  |  |  |  |  |  |  |  | 60 | 28 | 2 | 104 | 63 | 1 | 
CN(C)C/C=C/C(=O)Nc1cc2c(Nc3ccc(F)c(Cl)c3)ncnc2cc1O[C@H]1CCOC1 [Afatinib] | 2260 ± 730 | 76 | 74 | 2 | 2260 ± 734 | 7640 ± 699 | 126 | 136 | 60 | 7640 ± 700 | 3.4 |  |  |  |  |  |  | 
Cc1ccc(Nc2nccc(N(C)c3ccc4c(C)n(C)nc4c3)n2)cc1S(N)(=O)=O.Cl [Pazopanib HCl] |  |  |  |  |  |  |  |  |  |  |  | 77 | 59 | 24 | 134 | 116 | 54 | 
[N-]=[N+]=N[C@]1(CO)O[C@@H](n2ccc(N)nc2=O)[C@H](O)[C@@H]1O [R-1479] |  |  |  |  |  |  |  |  |  |  |  | 118 | 100 | 103 | 104 | 101 | 96 | 
CC(C)OC(=O)[C@H](C)N[P@@](=O)(OC[C@H]1O[C@@H](n2ccc(=O)[nH]c2=O)[C@](C)(F)[C@@H]1O)Oc1ccccc1 [PSI-7976] |  |  |  |  |  |  |  |  |  |  |  | 96 | 80 | 124 | 94 | 99 | 107 | 
COc1c(C)c2c(c(O)c1C/C=C(\C)CCC(=O)O)C(=O)OC2 [Mycophenolic acid (MPA), Mycophenolic acid] | 240 ± 100 | 72 | 7 | 2 | 238 ± 97 | 2040 | 132 | 100 | 48 | 2000 ± 400 | 8.6 |  |  |  |  |  |  | 
C[C@H](Cn1cnc2c(N)ncnc21)OCP(=O)(O)O [Tenofivir] |  |  |  |  |  |  |  |  |  |  |  | 114 | 138 | 96 | 101 | 100 | 100 | 
Cc1c(-c2ccc(O)cc2)n(Cc2ccc(OCCN3CCCCCC3)cc2)c2ccc(O)cc12 [Bazedoxifene HCL] | 1720 ± 790 | 110 | 103 | 2 | 1720 ± 481 | 6680 ± 2080 | 141 | 147 | 84 | 6680 ± 2080 | 3.9 |  |  |  |  |  |  | 
O=C(c1ccc(OCCN2CCCCC2)cc1)c1c(-c2ccc(O)cc2)sc2cc(O)ccc12 [Raloxifene (Evista), Raloxifene] | 1500 ± 793 | 87 | 89 | 3 |  | 9300 ± 1310 | 139 | 136 | 86 | 9300 ± 1300 | 6.2 |  |  |  |  |  |  | 
C[C@@]1(F)[C@H](O)[C@@H](CO)O[C@H]1n1ccc(N)nc1=O [PSI-6130] |  |  |  |  |  |  |  |  |  |  |  | 149 | 90 | 114 | 100 | 96 | 99 | 
Nc1ccn([C@@H]2O[C@H](CO)[C@@H](O)[C@H]2F)c(=O)n1 [2′-deoxy-2′-fluorocytidine (2-dFC), 2′-deoxy-2′-fluorocytidine] | 540 ± 210 | 90 | 27 | 2 | 533 ± 205 |  | 117 | 98 | 105 | > 50000 |  |  |  |  |  |  |  | reduction of wt LUJV viral titers (wt LUJV): approximately 4 logs; viability (in vitro): > 75%
Cl.Fc1ccc([C@@H]2CCNC[C@H]2COc2ccc3c(c2)OCO3)cc1 [Paroxetine HCl] |  |  |  |  |  |  |  |  |  |  |  | 93 | 83 | 48 | 138 | 145 | 110 | 
NC(=O)c1nc(F)c[nH]c1=O [Favipiravir (T-705), Favipiravir] | 2950 ± 690 | 94 | 95 | 22 | 2950 ± 693 |  | 101 | 104 | 96 | > 50000 |  |  |  |  |  |  |  | reduction of wt LUJV viral titers (wt LUJV): approximately 4 logs; viability (in vitro): > 75%
